Reference: patent publication US20120065153A1, “AZASUGAR DERIVATIVES, HEPARANASE INHIBITORS, METHOD FOR PREPARING SAME, COMPOSITIONS CONTAINING SAME, USE THEREOF” (SANOFI-AVENTIS, priority 2004, published 2012)

What was measured:
[1] = test system: HT1080 tumour cells; test: Invasion of HT1080 tumour cells through Matrigel (cell invasion test); type: cell-based, human
Experimental: The effect of the compounds of formula (I), inhibitors of heparanases, was tested in vitro on the invasion of HT1080 tumour cells.
The cells derived from human fibrosarcomas, HT1080 (ATCC CCL-121) are cultured in a DMEM medium (Ref.: GIBCO 11960-044) containing 5% Foetal Calf Serum, glutamine (2 mM) (Ref.: GIBCO 25030-024), sodium pyruvate (1 mM) (Ref.: GIBCO 11360-039) and nonessential amino acids (1×) (Ref.: GIBCO 11140-035), on collagen coated flasks (Becton Dickinson 75 cm^2; Ref. 354523), to 50 to 80% confluence.
The measurements of invasion of the HT1080 cells are carried out on a Becton Dickinson falcon HTS Fluoroblock Multiwell Insert System kit in 24-well plates (Ref.: 351158). These measurement chambers give the cells the conditions which make it possible to evaluate their invasive properties in vitro.
The kit is composed of a plate combined with culture inserts containing a PET membrane pierced with 8 micron pores on which a uniform Matrigel Matrix (Becton Dickinson; Ref. 354230) layer is deposited.
Matrigel is a soluble basal membrane extracted from the EHS (Engelbreth-Holm-Swarm) tumour which, by virtue of its composition, forms, upon solidifying, a structure equivalent to a basal membrane.
The Matrigel layer blocks the pores of the membrane, thus blocking the migration of the noninvasive cells across the membrane. By contrast, the invasive (tumour or nontumour) cells will be capable of becoming detached and of invading the Matrigel layer before migrating across the membrane.
The quantification of the cell migration is carried out by labelling with calcein AM (Molecular Probes C-3100). The fluorescent signal emitted is measured with the aid of a Perkin Elmer Wallac VICTOR 3 reader and may be directly correlated with the number of cells which have invaded the Matrigel gel. By comparing them with controls made in the same experiment as the products studied (response in the presence of 0% and 5% foetal calf serum), it is possible to determine a percentage inhibition of cell invasion in the presence of the products.

[2] = biological target: T1, heparanase (Homo sapiens, UniProt Q9Y251); test: Heparanase inhibition in an enzymatic system (degradation of fondaparinux, read out by anti-factor Xa activity); type: biochemical; settings: mean±SD, done on two assays
T1 sequence (Q9Y251 36-543): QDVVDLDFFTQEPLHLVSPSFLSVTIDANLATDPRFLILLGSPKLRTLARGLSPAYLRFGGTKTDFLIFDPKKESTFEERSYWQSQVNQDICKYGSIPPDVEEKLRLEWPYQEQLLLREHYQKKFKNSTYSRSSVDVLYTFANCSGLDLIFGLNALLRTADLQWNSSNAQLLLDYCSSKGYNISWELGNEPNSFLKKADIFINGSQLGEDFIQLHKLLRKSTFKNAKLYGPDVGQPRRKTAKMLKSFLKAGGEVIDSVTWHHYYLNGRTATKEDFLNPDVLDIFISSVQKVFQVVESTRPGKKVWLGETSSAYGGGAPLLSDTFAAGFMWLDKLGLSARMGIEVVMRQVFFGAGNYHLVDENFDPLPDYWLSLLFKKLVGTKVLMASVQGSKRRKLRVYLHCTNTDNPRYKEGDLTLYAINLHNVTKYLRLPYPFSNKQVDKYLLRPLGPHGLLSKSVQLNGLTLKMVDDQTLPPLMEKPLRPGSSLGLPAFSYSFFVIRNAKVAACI
Experimental: The concentration of fondaparinux is determined by means of its anti-factor Xa activity.
The heparanase is produced by Sanofi-Synthelabo (Labège, France).
The reagents for assaying factor Xa are marketed by Chromogénix (Montpellier, France).
Increasing concentrations of a compound according to the invention, an inhibitor of heparanases (varying dilutions: from 1 nM to 10 μM) are mixed at a fixed heparanase concentration (for each batch, preliminary experiments make it possible to determine the enzymatic activity which is sufficient for the degradation of 0.45 μg/ml of added fondaparinux). After 5 minutes at 37° C., the mixture is exposed to fondaparinux and left for 1 hour at 37° C. The reaction is stopped by heating at 95° C. for 5 minutes. The residual fondaparinux concentration is finally measured by adding factor Xa and its specific chromogenic substrate (Ref. S2222).
The various mixtures are produced according to the following procedure:
50 μl of sodium acetate buffer (0.2 M, pH 4.2) are mixed with 50 μl of fondaparinux (0.45 μg/ml) and 59 μl of a heparanase solution. The mixture is incubated for 1 hour at 37° C. and then for 5 minutes at 95° C. […]
The anti-factor Xa activity of fondaparinux is measured in the following manner: […]
The optical density is read at 405 nm.
A percentage inhibition is determined relative to control without inhibitor. […]

SMILES	inhibition of cell invasion ([1]; 0.3 μM) [%]	inhibition of cell invasion ([1]; 1 μM) [%]	inhibition of cell invasion ([1]; 10 μM, four independent determinations, mean±standard deviation) [%]	effect on cell invasion as a function of dose ([1]; HT1080 cells)	IC50 [2] [nM]
CC(=O)N[C@H]1[C@@H](O[C@H]2[C@H](O)CNC[C@@H]2C(=O)O)O[C@H](COS(=O)(=O)O)[C@@H](O[C@@H]2O[C@@H](C(=O)O)[C@@H](O[C@H]3O[C@H](COS(=O)(=O)O)[C@@H](O[C@@H]4O[C@@H](C(=O)O)[C@@H](OS(=O)(=O)O)[C@H](O)[C@H]4OS(=O)(=O)O)[C@H](O)[C@H]3NC(C)=O)[C@H](O)[C@H]2OS(=O)(=O)O)[C@@H]1O.[Na+].[Na+].[Na+].[Na+].[Na+].[Na+].[Na+].[Na+] [compound No. 20, (2,4-di-O-sodium sulphonato-α-L-idopyranosyluronate of sodium)-(1-4)-(2-acetamido-2-deoxy-6-O-sodiumsulphonato-α-D-glucopyranosyl)-(1-4)-(2-O-sodiumsulphonato-α-L-idopyranosyluronate of sodium)-(1-4)-(2-acetamido-2-deoxy-6-O-sodiumsulphonato-α-D-glucopyranosyl)-(1-4)-(5-(hydroxy)-4-oxypiperidine-3-carboxylate of sodium (3S,4R,5R))]	26±3	53±11	40.3±8.3	dose-dependent effect	
O=C(O)[C@H]1CNC[C@@H](O)[C@@H]1O[C@H]1O[C@H](COS(=O)(=O)O)[C@@H](O[C@@H]2O[C@@H](C(=O)O)[C@@H](O[C@H]3O[C@H](COS(=O)(=O)O)[C@@H](O[C@@H]4O[C@@H](C(=O)O)[C@@H](OS(=O)(=O)O)[C@H](O)[C@H]4OS(=O)(=O)O)[C@H](O)[C@H]3NS(=O)(=O)O)[C@H](O)[C@H]2OS(=O)(=O)O)[C@H](O)[C@H]1NS(=O)(=O)O [compound No. 27, (2,4-di-O-sodium sulphonato-α-L-idopyranosyluronate of sodium)-(1-4)-(2-N-sodiumsulphonato-2-deoxy-6-O-sodiumsulphonato-α-D-glucopyranosyl)-(1-4)-(2-O-sodiumsulphonato-α-L-idopyranosyluronate of sodium)-(1-4)-(2-N-sodiumsulphonato-2-deoxy-6-O-sodiumsulphonato-α-D-glucopyranosyl)-(1-4)-(5-(hydroxy)-4-oxypiperidine-3-carboxylate of sodium (3S,4R,5R))]					11 ± 4
